Experiment [1] has as its system K562 cells. The experiment can be described thus: GSK983 dose response, K562 cell growth (viable cells by flow cytometry). The experiment is classed as cell-based. The note with it: Homo sapiens, 72 h treatment, viable cells counted by flow cytometry, read-out: IC50, inhibition of K562 cell growth. As to the method:
GSK983 dose response and growth time course in K562 cells. To determine the dose response of K562 cells to GSK983, K562 cells were seeded into 24-well plates at a density of 50,000 cells/mL and treated with GSK983 at the indicated concentration for 72 h. Following 72 h treatment, cells were harvested and the density of viable cells was determined by flow cytometry (FSC/SSC) using a BD Accuri C6 Flow Cytometer. IC50 values were calculated by fitting a 4-parameter logistic equation to the data. […] At the indicated time points, cells were harvested and the density of viable cells was determined by flow cytometry (FSC/SSC) using a BD Accuri C6 Flow Cytometer.

For experiment [2], the system named is K562 cells. The experiment can be described thus: Cell cycle analysis based on total DNA content (propidium iodide). Set-up: species or system human. Conditions: 24 h GSK983 treatment. As to the method:
Cell cycle analysis based on total DNA content (propidium iodide). […] Cells were treated with the indicated concentration of GSK983 for 24 h. […] Following 24 treatment, cells were harvested and pelleted (300 g, 5 min). The supernatant was removed by vacuum and the cells were washed (0.5 mL 1×PBS). Cells were resuspended in 70% EtOH (1 mL, 0° C.) with mild vortexing. Cells were fixed in 70% EtOH overnight at 4° C. The following day, fixed cells were pelleted (1900 g, 5 min), washed (0.5 mL 1×PBS), and resuspended in 200 μL of a total DNA content staining solution (1×PBS with 50 μg/mL RNase A and 10 μg/mL propidium iodide). Samples were incubated for 30 min at 37° C. and analyzed by flow cytometry using a BD Accuri C6 Flow Cytometer. Propidium iodide fluorescence was detected in FL2.

The subject of experiment [3] is K562 cells. The experiment is described as follows: Annexin V-FITC/7-AAD apoptosis assay. It counts as cell-based, human. Conditions: 72 h GSK983 treatment. How it is done: Annexin V-FITC/7-AAD apoptosis assay. K562 cells were seeded into 24-well plates at a density of 50,000 cells/mL and treated with the indicated concentration of GSK983 for 72 h. The final concentration of DMSO in each well was <0.1%. Following 72 h GSK983 treatment, cells were harvested and pelleted (399 g, 5 min). The supernatant was removed by vacuum. Cell death by apoptosis was analyzed using a BioVision Annexin V-FITC Apoptosis Kit (catalog number K101-100). A staining solution was prepared by first diluting the provided Annexin V-FITC solution in binding buffer according to the specifications of the manufacturer. 7-AAD was added from a stock solution in DMSO (0.67 mg/mL) such that the final concentration of 7-AAD in the staining solution was 2.5 μg/mL. Cell samples were resuspended in 0.5 mL of the staining solution. Samples were incubated at room temperature for 10 min in the dark and analyzed by flow cytometry using a BD Accuri C6 Flow Cytometer. FITC fluorescence was detected in FL1 and 7-AAD fluorescence was detected in FL3.

In a further experiment the target is recombinant human DHODH (Homo sapiens, UniProt Q02127). The experiment can be described thus: In vitro enzyme activity assay with recombinant human Δ29DHODH (DCPIP coupled assay). Conditions: recombinant human Δ29DHODH 10 nM, DHO 200 μM; read-out: Ki, DHODH, competitive with respect to decylubiquinone binding. The experiment is classed as biochemical. How it is done:
The reduction of DCPIP can be monitored by the loss of absorbance at 610 nm (ε=21,500 M−1cm-1). Kinetic constants were calculated from measurements in which Δ29DHODH (10 nM) was either titrated with different concentrations of decylubiquinone (QD, 10-60 μM) at a fixed concentration of DHO (200 μM) or titrated with different concentrations of DHO (10-60 μM) at a fixed concentration of QD (100 μM). Enzymatic assays were conducted at 25° C. in a reaction buffer containing Tris (100 mM, pH 8.0), NaCl (150 mM), DCPIP (60 μM), glycerol (10% v/v), and Triton X-100 (0.1% v/v). The Km values for Δ29DHODH (15 μM for DHO and 14 μM for QD) were in good agreement with previously reported values for both the full-size and N-terminally truncated enzyme.
For each inhibitor compound, three reactions were prepared: a control reaction containing no inhibitor and two reactions containing different inhibitor concentrations. Δ29DHODH was incubated with inhibitor compounds at room temperature for 5 min. The indicated concentration of QD and DHO (200 μM) were added to the reaction mixtures and absorbance at 610 nm was monitored using a PerkinElmer Lamda 25 UV-Vis spectrophotometer. For enzyme activity assays, inhibitor compounds were prepared as 1 mM stock solutions in DMSO. A QD stock solution (10 mM) was prepared in a buffer containing Tris (100 mM, pH 8.0) and Triton X-100 (1.0% v/v). […]

The next experiment deals with T1, recombinant human CMPK1 (Homo sapiens, UniProt P30085).
T1 sequence (P30085 1-196): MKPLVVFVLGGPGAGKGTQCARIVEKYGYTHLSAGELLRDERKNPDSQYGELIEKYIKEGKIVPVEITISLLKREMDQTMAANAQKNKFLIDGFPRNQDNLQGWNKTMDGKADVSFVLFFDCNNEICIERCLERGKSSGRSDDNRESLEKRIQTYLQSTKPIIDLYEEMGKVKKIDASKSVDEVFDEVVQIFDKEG
The experiment can be described thus: In vitro enzyme activity assay with recombinant human CMPK1 (ATP consumption). The experiment is classed as biochemical. Conditions: GSK983 concentrations up to 10 μM. As to the method: In vitro enzyme activity assays with recombinant human CMPK1. The activity of recombinant human CMPK1 was measured in the presence of GSK983 using an ATP consumption assay. CMPK1 (10 nM) was added to a reaction buffer containing Tris (50 mM, pH 7.5), MgCl2 (2 mM), DTT (2 mM), ATP (100 μM), CMP (100 μM), and GSK983 (0-10 μM, from a DMSO stock solution). The final concentration of DMSO in all reaction mixtures was 2% (v/v). Enzyme activity assays were conducted at 37° C. The consumption of phosphoryl donor ATP was monitored using a Promega Kinase-Glo Luminescent Kinase Assay kit according to the manufacturer's instructions. We observed no effect of GSK983 on CMPK1 activity in vitro at GSK983 concentrations up to 10 μM.

The test system of experiment [4] is DENV. The experiment is described as follows: DENV antiviral assay (DENV-Luc replication in A549 cells). It counts as cell-based, dengue virus serotype 2 strain 16681. Conditions: for IC50: Dengue virus, A549, 72 h.
A further experiment has as its system A549 cells. The experiment is described as follows: A549 cell viability assay accompanying the DENV assay. The experiment is classed as cell-based, human. The note with it: 30 nM GSK983 and 1 mM deoxycytidine, 72 h.
For the next experiment, the system named is VEEV. The experiment is described as follows: microbe, parasite or virus in culture. The experiment is classed as cell-based, Venezuelan equine encephalitis virus (vaccine strain TC-83). The note with it: Venezuelan equine encephalitis virus, A549, read-out: IC50, inhibition of VEEV replication.
For experiment [5], the system named is DENV. The experiment is classed as cell-based, dengue virus serotype 2 strain 16681. The note with it: 48 nM GSK983, 20 μM uridine, UCK2 shRNA derivative.
Experiment [6] deals with variety of unrelated viruses. Conditions: Harvey et al. (2009); read-out: EC50, inhibition of replication of a variety of unrelated viruses in vitro; cited from earlier work.
In experiment [7] the test system is uridine salvage in K562 and A549 cells. The experiment is described as follows: Uridine salvage inhibition by 5-ethynyl-uridine (5-EU) incorporation and click chemistry. The note with it: Homo sapiens. It counts as cell-based.
The test system of experiment [8] is DENV. The experiment can be described thus: DENV antiviral assay for combination of GSK983 and DP. The experiment is classed as cell-based, dengue virus serotype 2 strain 16681. The note with it: Dengue virus.
Experiment [9] relates to A549 lung cancer cell line. The experiment is described as follows: A549 cell count, DP with GSK983 in uridine supplemented media. The experiment is classed as cell-based. The note with it: Homo sapiens, 158 nM GSK983, 20 μM uridine supplemented media, 72 h, read-out: IC50(DP), A549 viable cell count.
Experiment [10] deals with K562 cells. The experiment is described as follows: K562 cell count, DP with GSK983 in uridine supplemented media. It counts as cell-based. Conditions: Homo sapiens, 50 nM GSK983, 20 μM uridine supplemented media, 72 h.
In a further experiment the test system is MV4-11 cells. The experiment is described as follows: MV4-11 cell killing, DP with GSK983 in uridine supplemented media. It counts as cell-based. Conditions: Homo sapiens, 158 nM GSK983, 20 μM uridine supplemented media.
Experiment [11] deals with chronic myelogenous leukemia (CML). The note with it: in vivo; cited from earlier work.

Each structure is given as a SMILES string. Read-outs that look alike come from different tables or passages of the source.

We go through 3 molecules from patent US10736911B2, “Use of a DHODH inhibitor in combination with an inhibitor of pyrimidine salvage” (The Board of Trustees of the Leland Stanford Junior …, priority 2015, dated 2020).

By IC50 is commonly meant the concentration that gives 50% inhibition. What is called Ki is a dissociation constant, usually derived from enzyme kinetics or from competition with a known ligand. What is called EC50 is the concentration at which the effect is half-maximal.

recombinant human DHODH, sequence (Q02127 30-395): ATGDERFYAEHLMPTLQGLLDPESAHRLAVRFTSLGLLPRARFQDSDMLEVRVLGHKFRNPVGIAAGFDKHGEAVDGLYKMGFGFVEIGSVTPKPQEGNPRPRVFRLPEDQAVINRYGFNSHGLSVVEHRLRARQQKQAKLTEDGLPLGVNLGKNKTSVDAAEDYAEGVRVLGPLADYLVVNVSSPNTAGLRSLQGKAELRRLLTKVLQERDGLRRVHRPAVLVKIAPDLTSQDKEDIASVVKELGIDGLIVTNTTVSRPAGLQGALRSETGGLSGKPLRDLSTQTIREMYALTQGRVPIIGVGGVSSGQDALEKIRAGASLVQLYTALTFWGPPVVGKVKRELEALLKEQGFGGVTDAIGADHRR

For `O=C(N[C@@H]1CCCc2c1[nH]c1ccc(Cl)cc21)c1ccccn1` [GSK983, (R)—N-(6-Chloro-2,3,4,9-tetrahydro-1H-carbazol-1-yl)picolinamide], the IC50 with K562 cells [1] was determined as 0.021 µM; in the experiment with DENV [4] (read-out: IC50, inhibition of DENV replication) it was 0.0133 µM; in the experiment with DENV [4] (read-out: IC50, inhibition of DENV replication with exogenous deoxycytidine), 0.0135 µM; in the experiment with VEEV it was 0.0128 µM. For the same molecule, the Cell cycle effect entry with K562 cells [2] was “accumulation of K562 cells in S phase”. In the experiment with K562 cells [3], the “Cell death by apoptosis” value was “dose dependent increase in K562 cell death by apoptosis”. The Ki at recombinant human DHODH came to 0.403 µM. At recombinant human CMPK1, the “Effect on in vitro CMPK1 activity” value was “no effect”. The “Reduction in DENV replication” value in the experiment with DENV [4] (30 nM GSK983 and 1 mM deoxycytidine, A549 cells) is reported as ~90%. Further, the “Antiviral activity against DENV with uridine supplementation” value with DENV [4] (A549 cells, 1 mM uridine) is recorded as “completely abolished the antiviral activity”. In the experiment with A549 cells, the “Effect on A549 cell growth” value was “minimal effect”. In the experiment on DENV [5], the “DENV replication in A549 UCK2 shRNA cells” value is recorded as “inhibited viral replication in the latter cell-line”. In experiment [6], the 50% effective concentration (EC50) was 0.005 to 0.02 µM.
Regarding `OCCN(CCO)c1nc(N2CCCCC2)c2nc(N(CCO)CCO)nc(N3CCCCC3)c2n1` [DP, dipyridamole], the IC50 in [7] was 0.2 µM; in [9], 0.23 µM; in the experiment with K562 cells [10], 0.11 µM; in the experiment with MV4-11 cells, 0.11 µM. Besides, the concentration for a half-maximal effect (EC50) amounted to 0.135 µM with DENV [8] (A549, 48 h, read-out: EC50 of DP, DENV luciferase signal, 2 days post-infection) and 0.164 µM in the experiment with DENV [8] (A549, 72 h, read-out: EC50 of DP, DENV luciferase signal, 3 days post-infection).
Take `Cc1c(-c2ccc(-c3ccccc3F)cc2)nc2ccc(F)cc2c1C(=O)O` [brequinar]: the “Efficacy towards CML in mouse models” value in experiment [11] was “effective”.
